Test results taken from patent publication US10392368B2, “Pyrazolo and triazolo bicyclic compounds as JAK kinase inhibitors” (THERAVANCE BIOPHARMA R&D IP, LLC, priority 2017, dated 2019).

Legend:
Tyk2 = target: T1, Tyk2 (Homo sapiens, UniProt P29597); assay: Biochemical Tyk2 kinase assay (LanthaScreen); details: for Ki: read-out: Tyk 2 (pKi) (converted)
T1 construct: GST; purchased Life Technologies
Outline: (§1)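 TR-FRET readout (520/495 nm) using Tb-labelled pTyr701 antibody after EDTA stop, following 1 h ATP-started phosphorylation of GFP-STAT1 by recombinant GST-JAK. Compounds preincubated 1 h with enzyme and substrate; pIC50 from 4-parameter fit, Cheng-Prusoff gives pKi.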

[1] = test system: IL-2 stimulated pSTAT5 in Tall-1 T cells; assay: Cellular JAK3 potency assay: inhibition of IL-2 stimulated pSTAT5 in Tall-1 T cells; assay type: cell-based, human; details: for IC50: Homo sapiens, TALL-1, IL-2 stimulated pSTAT5 in Tall-1 T cells, read-out: Tall-1 (pIC50) (converted); for Tall-1 (pIC50): IL-2 stimulated pSTAT5 in Tall-1 T cells
Outline: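 In human Tall-1 T cells, IL-2 (300 ng/ml final, 30 min) drives STAT5 phosphorylation after a 1 h compound pretreatment. Lysates are assayed for pSTAT5 by AlphaLisa, and IC50 derived from signal versus concentration is expressed as pIC50.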

JAK1 = target: T2, JAK1 (Homo sapiens, UniProt P23458); assay: Biochemical JAK1 kinase assay (LanthaScreen); details: for Ki: read-out: JAK 1 (pKi) (converted)
T2 construct: GST; purchased Life Technologies
Outline: as §1

JAK3 = target: T3, JAK3 (Homo sapiens, UniProt P52333); assay: Biochemical JAK3 kinase assay (LanthaScreen); design: GST; purchased Life Technologies; details: for Ki: read-out: JAK 3 (pKi) (converted); for JAK3 (pKi)-JAK1 (pKi): selectivity: difference of pKi JAK3 and pKi JAK1
T3 sequence (P52333 1-1124): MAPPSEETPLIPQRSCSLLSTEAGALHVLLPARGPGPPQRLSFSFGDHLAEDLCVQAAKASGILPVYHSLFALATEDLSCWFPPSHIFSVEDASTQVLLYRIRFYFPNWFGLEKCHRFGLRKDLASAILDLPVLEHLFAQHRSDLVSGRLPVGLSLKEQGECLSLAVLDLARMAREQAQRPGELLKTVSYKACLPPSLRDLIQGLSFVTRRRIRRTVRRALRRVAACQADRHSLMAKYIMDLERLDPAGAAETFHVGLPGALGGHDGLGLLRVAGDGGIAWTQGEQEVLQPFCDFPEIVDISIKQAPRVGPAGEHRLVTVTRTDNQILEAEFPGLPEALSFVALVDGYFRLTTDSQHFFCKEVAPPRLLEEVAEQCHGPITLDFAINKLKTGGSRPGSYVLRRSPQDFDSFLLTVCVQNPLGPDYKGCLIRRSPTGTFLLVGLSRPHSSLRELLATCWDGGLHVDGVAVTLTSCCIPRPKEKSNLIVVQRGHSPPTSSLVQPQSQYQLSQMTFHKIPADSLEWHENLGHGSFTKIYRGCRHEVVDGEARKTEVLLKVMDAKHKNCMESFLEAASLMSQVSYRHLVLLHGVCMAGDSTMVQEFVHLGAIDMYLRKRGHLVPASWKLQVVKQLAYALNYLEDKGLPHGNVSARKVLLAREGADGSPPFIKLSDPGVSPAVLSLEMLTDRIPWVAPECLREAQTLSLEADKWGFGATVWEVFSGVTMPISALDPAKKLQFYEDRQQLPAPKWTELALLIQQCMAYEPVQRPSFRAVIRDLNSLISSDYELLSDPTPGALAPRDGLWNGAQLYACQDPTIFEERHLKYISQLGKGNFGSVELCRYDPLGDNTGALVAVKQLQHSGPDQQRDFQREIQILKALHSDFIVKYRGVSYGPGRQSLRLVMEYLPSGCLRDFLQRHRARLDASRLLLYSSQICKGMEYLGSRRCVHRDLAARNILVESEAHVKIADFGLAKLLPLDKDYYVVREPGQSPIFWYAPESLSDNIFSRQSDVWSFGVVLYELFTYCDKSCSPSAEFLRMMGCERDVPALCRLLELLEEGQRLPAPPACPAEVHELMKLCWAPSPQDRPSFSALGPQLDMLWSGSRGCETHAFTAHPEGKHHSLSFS
Outline: as §1

JAK2 = target: T4, JAK2 (Homo sapiens, UniProt O60674); assay: Biochemical JAK2 kinase assay (LanthaScreen); details: for Ki: read-out: JAK 2 (pKi) (converted)
T4 construct: GST; purchased Life Technologies
Outline: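 GST-tagged recombinant JAK2 pre-incubated 1 h at ambient temperature with compound and GFP-STAT1 peptide in HEPES pH 7.5/MgCl2 buffer, then ATP added for a 1 h reaction with 1% DMSO. TR-FRET read after EDTA and Tb-anti-pSTAT1 (pTyr701) addition; IC50 from 4-parameter fit, converted to pKi by Cheng-Prusoff.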

T2 sequence (P23458 whole entry): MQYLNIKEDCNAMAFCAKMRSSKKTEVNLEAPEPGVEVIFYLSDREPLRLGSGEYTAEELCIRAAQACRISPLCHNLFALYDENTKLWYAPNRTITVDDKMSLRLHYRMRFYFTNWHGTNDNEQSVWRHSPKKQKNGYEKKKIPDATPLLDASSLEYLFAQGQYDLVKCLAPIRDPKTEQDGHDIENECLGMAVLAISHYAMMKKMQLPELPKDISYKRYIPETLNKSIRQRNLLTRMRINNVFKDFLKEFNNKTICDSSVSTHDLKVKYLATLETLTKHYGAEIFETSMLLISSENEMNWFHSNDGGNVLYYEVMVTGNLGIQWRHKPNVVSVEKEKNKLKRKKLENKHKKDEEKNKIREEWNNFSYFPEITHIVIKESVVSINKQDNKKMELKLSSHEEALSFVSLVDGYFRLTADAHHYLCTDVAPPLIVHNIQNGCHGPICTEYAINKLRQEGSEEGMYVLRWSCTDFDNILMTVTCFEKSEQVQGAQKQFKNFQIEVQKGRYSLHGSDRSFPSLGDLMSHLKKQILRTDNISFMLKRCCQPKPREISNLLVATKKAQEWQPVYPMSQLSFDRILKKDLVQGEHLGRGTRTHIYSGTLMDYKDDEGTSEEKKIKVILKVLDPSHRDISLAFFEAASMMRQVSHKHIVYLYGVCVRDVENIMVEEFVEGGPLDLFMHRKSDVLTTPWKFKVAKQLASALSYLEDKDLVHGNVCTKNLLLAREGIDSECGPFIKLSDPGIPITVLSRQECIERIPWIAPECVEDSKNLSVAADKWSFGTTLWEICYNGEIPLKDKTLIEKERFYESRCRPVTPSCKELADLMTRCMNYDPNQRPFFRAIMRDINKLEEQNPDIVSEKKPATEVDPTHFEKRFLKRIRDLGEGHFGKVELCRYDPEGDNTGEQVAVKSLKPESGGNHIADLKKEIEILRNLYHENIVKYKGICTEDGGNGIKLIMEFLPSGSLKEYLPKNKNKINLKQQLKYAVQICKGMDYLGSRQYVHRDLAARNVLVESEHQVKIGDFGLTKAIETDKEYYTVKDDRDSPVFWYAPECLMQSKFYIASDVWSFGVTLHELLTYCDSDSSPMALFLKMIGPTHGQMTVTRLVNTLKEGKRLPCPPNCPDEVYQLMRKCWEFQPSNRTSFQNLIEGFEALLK
T1 sequence (P29597 whole entry): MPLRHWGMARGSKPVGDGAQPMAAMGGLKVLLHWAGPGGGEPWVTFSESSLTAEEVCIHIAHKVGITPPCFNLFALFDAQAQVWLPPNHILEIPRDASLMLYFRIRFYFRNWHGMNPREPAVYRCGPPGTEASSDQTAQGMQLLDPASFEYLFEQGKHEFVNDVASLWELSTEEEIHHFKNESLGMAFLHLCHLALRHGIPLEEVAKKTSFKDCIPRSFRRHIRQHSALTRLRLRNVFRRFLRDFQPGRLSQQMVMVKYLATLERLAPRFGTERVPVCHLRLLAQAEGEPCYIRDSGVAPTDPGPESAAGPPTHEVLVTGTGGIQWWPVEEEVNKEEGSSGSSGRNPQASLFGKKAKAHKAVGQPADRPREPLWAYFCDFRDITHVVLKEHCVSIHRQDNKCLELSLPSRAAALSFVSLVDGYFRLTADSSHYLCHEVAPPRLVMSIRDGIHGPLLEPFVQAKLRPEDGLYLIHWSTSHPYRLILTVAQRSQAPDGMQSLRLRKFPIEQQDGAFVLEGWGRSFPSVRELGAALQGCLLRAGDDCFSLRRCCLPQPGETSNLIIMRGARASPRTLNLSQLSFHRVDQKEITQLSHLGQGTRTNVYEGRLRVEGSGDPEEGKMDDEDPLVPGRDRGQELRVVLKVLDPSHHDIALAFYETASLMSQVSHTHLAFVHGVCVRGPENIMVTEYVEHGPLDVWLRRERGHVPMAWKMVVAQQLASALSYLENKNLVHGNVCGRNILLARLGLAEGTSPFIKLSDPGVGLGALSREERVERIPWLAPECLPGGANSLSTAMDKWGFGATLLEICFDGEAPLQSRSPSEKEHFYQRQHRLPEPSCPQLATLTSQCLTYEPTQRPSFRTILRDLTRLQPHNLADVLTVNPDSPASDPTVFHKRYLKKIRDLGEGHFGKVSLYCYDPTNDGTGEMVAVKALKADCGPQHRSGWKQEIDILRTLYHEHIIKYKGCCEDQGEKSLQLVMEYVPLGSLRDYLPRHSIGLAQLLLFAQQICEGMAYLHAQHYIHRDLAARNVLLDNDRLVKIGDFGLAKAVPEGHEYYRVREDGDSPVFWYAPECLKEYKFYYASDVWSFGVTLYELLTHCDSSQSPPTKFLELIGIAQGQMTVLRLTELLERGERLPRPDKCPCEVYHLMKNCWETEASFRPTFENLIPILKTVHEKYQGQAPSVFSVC
T4 sequence (O60674 whole entry): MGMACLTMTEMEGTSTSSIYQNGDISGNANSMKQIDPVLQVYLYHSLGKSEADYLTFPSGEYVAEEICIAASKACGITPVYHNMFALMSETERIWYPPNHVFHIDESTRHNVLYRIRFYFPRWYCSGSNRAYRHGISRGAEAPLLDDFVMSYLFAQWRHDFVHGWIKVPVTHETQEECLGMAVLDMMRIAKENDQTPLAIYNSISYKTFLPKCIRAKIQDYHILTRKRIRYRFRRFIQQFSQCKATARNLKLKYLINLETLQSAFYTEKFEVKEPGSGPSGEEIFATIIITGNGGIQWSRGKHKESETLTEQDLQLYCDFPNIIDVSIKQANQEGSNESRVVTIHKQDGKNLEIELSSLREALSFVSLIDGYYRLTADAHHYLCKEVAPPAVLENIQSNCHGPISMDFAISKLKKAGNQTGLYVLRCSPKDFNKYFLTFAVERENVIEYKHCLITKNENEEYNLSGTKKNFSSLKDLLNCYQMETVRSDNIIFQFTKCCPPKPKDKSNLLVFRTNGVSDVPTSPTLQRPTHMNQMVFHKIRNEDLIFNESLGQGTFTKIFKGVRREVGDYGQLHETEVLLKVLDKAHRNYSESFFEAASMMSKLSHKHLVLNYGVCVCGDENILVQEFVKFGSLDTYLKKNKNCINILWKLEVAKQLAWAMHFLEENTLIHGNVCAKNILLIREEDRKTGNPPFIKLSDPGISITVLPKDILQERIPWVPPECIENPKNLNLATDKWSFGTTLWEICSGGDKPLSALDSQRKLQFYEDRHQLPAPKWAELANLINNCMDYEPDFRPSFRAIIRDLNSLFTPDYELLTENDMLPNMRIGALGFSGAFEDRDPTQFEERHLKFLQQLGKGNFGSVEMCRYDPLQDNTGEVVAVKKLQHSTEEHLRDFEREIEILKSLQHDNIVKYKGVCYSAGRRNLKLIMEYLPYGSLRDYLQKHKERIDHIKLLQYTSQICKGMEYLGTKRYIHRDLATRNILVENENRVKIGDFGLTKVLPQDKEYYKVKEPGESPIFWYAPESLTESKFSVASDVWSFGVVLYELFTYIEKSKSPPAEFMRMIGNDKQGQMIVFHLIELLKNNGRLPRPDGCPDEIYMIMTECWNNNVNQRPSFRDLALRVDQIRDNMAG

SMILES	Ki (Tyk2)	IC50 [1]	Ki (JAK1)	Ki (JAK3)	JAK3 (pKi)-JAK1 (pKi) (JAK3)	Ki (JAK2)	Tyk 2 (pKi) (Tyk2)	Tall-1 (pIC50) [1]	JAK 1 (pKi) (JAK1)	JAK 3 (pKi) (JAK3)	JAK 2 (pKi) (JAK2)
CN(C)C/C=C/C(=O)N1CC(F)(COc2nc(-c3ccc(O)c(Cl)c3)cc3[nH]ncc23)C1 [Compound 3-91]	> 100 nM	< 31.6 nM	10 to 100 nM	< 0.1 nM	A (a value of 3 or above)	10 to 100 nM					
C=CC(=O)N1CC(F)(COc2nc(-c3ccc(O)c(Cl)c3)nc3[nH]ncc23)C1 [Compound 3-92]	> 100 nM	< 31.6 nM	> 100 nM	< 0.1 nM	A (a value of 3 or above)	> 100 nM					
C=CC(=O)N1CC(F)(COc2nc(-c3ccc(O)c(F)c3)nc3[nH]ncc23)C1 [Compound 3-93]	> 100 nM	< 31.6 nM	> 100 nM	< 0.1 nM	A (a value of 3 or above)	> 100 nM					
C=CC(=O)N1CC(F)(COc2cc(-c3ccc(O)c(Cl)c3)nc3[nH]ncc23)C1 [Compound 3-94]					A (a value of 3 or above)		E (a pKi value of 7 or below (Ki of 100 nM or above))	A (a pIC50 value≥7.5 (IC50≤32 nM))	E (a pKi value of 7 or below (Ki of 100 nM or above))	A (a pKi value≥10 (Ki≤0.1 nM))	E (a pKi value of 7 or below (Ki of 100 nM or above))
CN(C)C/C=C/C(=O)N1CC(C)(COc2nc(-c3ccc(O)c(Cl)c3)cc3[nH]ncc23)C1 [Compound 3-95]					A (a value of 3 or above)		E (a pKi value of 7 or below (Ki of 100 nM or above))	A (a pIC50 value≥7.5 (IC50≤32 nM))	E (a pKi value of 7 or below (Ki of 100 nM or above))	A (a pKi value≥10 (Ki≤0.1 nM))	E (a pKi value of 7 or below (Ki of 100 nM or above))
CN(C)C/C=C/C(=O)N1CC(C)(COc2nc(-c3ccc(O)c(F)c3)cc3[nH]ncc23)C1 [Compound 3-96]					A (a value of 3 or above)		E (a pKi value of 7 or below (Ki of 100 nM or above))	B (a pIC50 value between 6.7 (included) and 7.5 (IC50 between 200 nM and 32 nM))	E (a pKi value of 7 or below (Ki of 100 nM or above))	B (a pKi value between 9 and 10 (Ki between 1 nM and 0.1 nM))	E (a pKi value of 7 or below (Ki of 100 nM or above))
C=CC(=O)N1CC(C)(COc2nc(-c3ccc(O)c(Cl)c3)cc3[nH]ncc23)C1 [Compound 3-97]					B (a value of 2.3 to 3)		E (a pKi value of 7 or below (Ki of 100 nM or above))	A (a pIC50 value≥7.5 (IC50≤32 nM))	E (a pKi value of 7 or below (Ki of 100 nM or above))	B (a pKi value between 9 and 10 (Ki between 1 nM and 0.1 nM))	E (a pKi value of 7 or below (Ki of 100 nM or above))
C=CC(=O)N1CC(C)(COc2cc(-c3ccc(O)c(F)c3)nc3[nH]ncc23)C1 [Compound 3-98]	> 100 nM	31.6 to 200 nM	> 100 nM	< 0.1 nM	A (a value of 3 or above)	> 100 nM					
CCC1(COc2nc(-c3ccc(O)c(Cl)c3)cc3[nH]ncc23)CN(C(=O)/C=C/CN(C)C)C1 [Compound 3-99]					A (a value of 3 or above)		E (a pKi value of 7 or below (Ki of 100 nM or above))	A (a pIC50 value≥7.5 (IC50≤32 nM))	E (a pKi value of 7 or below (Ki of 100 nM or above))	A (a pKi value≥10 (Ki≤0.1 nM))	E (a pKi value of 7 or below (Ki of 100 nM or above))
